Assay results: US20130251730A1, “Compounds and Mixtures Influencing Inflammatory States” (SYMRISE AG, priority 2012, published 2013)
Marks after values point to notes of the source that are not given here.

Key:
[1] = system: IL-6 release by human gingival fibroblastic cells (HGF-1); experiment: Release of IL-6 by HGF-1 cells after stimulation with 10 μg/ml PG-LPS (magnetic bead assay); assay type: cell-based
Experimental: Human gingival fibroblastic cells (HGF-1) were sowed out in 24-well plates with 15,000 cells per well and cultivated for 3 to 5 days. DNEM containing 10% FBS, 1% penicillin/streptomycin and 4% glutamine was used as the medium. For determination of the anti-inflammatory action the cells were incubated with 10 μg/ml PG-LPS for 6 and 9 hrs. Subsequently, the release of IL-6 and IL-8 per magnetic bead was determined (Procarta, Affimetrix) using a MAGPIX equipment (Merck-Millipore) and analysed using the Milliplex software (Merck Millipore). In each case 4 samples with two technical replicates were measured. In addition to this control the cells were co-incubated with • (a) 10 μg/ml PG-LPS and also with • (b) solutions of the Herba Santa extract according to Example 1 (HS, containing 21.7% HED, […]); • (c) the flavonoid fraction (“FF”) obtained as a by-product according to Example 4 (containg 41.5% HED, […]); • (d) the extract rich in erionic acid (“ES”) according to Example 4 or isolated erionic acid B (according to Example 2) and • (e) erionic acid C according to Example 3 (each 0,1 μM, 1 μM and 10 μM).
(§1) After incubation the cell culture medium was transferred into an Eppendorf reaction vessel and at 4° C. for 10 min subjected to centrifugation (1000×g) in order to separate the cell depris. The upper layer was stored at −80° C. until the analysis started. The results of the release of IL-6 and […]

[2] = system: IL-8 release by human gingival fibroblastic cells (HGF-1); experiment: Release of IL-8 by HGF-1 cells after stimulation with 10 μg/ml PG-LPS (magnetic bead assay); assay type: cell-based
Experimental: Human gingival fibroblastic cells (HGF-1) were sowed out in 24-well plates with 15,000 cells per well and cultivated for 3 to 5 days. DNEM containing 10% FBS, 1% penicillin/streptomycin and 4% glutamine was used as the medium. For determination of the anti-inflammatory action the cells were incubated with 10 μg/ml PG-LPS for 6 and 9 hrs. Subsequently, the release of IL-6 and IL-8 per magnetic bead was determined (Procarta, Affimetrix) using a MAGPIX equipment (Merck-Millipore) and analysed using the Milliplex software (Merck Millipore). In each case 4 samples with two technical replicates were measured. In addition to this control the cells were co-incubated with • (a) 10 μg/ml PG-LPS and also with • (b) solutions of the Herba Santa extract according to Example 1 (HS, containing 21.7% HED, 0.1 μM, 1 μM and 10 μM calculated on HED); • (c) the flavonoid fraction (“FF”) obtained as a by-product according to Example 4 (containg 41.5% HED, 0,1 μM, 1 μM and 10 μM calculated on HED); • (d) the extract rich in erionic acid (“ES”) according to Example 4 or isolated erionic acid B (according to Example 2) and • (e) erionic acid C according to Example 3 (each 0,1 μM, 1 μM and 10 μM).
as §1

[3] = 10 μg/ml PG-LPS + 1 μg/ml test substance, 6 h
[4] = 10 μg/ml PG-LPS + 1 μg/ml test substance, 9 h
[5] = 10 μg/ml PG-LPS + 10 μg/ml test substance, 6 h
[6] = 10 μg/ml PG-LPS + 10 μg/ml test substance, 9 h
[7] = 10 μg/ml PG-LPS + 100 μg/ml test substance, 6 h
[8] = 10 μg/ml PG-LPS + 100 μg/ml test substance, 9 h
[9] = co-incubation with 10 μg/ml PG-LPS, 6 and 9 hrs, 0.1, 1 and 10 μM

Q: Which results are given for CC(CCc1cc(C(=O)O)cc2c1OC(C)(C)C(O)C2)C(=O)/C=C/C(C)(C)O (centres unmarked) [Erionic acid B, 3-hydroxy-8-((E)-7-hydroxy-3,7-dimethyl-4-oxo-oct-5-enyl)-2,2-dimethyl-chroman-6-carboxylic acid]?
A: IL-6 T/C [%] [1, 3]: 61.93* %; IL-6 T/C [%] [1, 4]: 77.51* %; IL-6 T/C [%] [1, 5]: 102.30%; IL-6 T/C [%] [1, 6]: 61.47*** %; IL-6 T/C [%] [1, 7]: 41.30** %; IL-6 T/C [%] [1, 8]: 102.74%; release of IL-6 [1, 9]: significant reduction; IL-8 T/C [%] [2, 3]: 79.91%; IL-8 T/C [%] [2, 4]: 77.33%; IL-8 T/C [%] [2, 5]: 134.54** %; IL-8 T/C [%] [2, 6]: 71.35%; IL-8 T/C [%] [2, 7]: 46.30** %; IL-8 T/C [%] [2, 8]: 116.34%; release of IL-8 [2, 9]: significant reduction
